Results published in article PMC12586182 (Frontiers in Oncology, 2025).
Like-named read-outs stand apart in the source and are kept apart here.

What was measured:
[1] = tested on: REC-1; experiment: Cell viability assay (ATPlite); format: cell-based, human; settings: REC-1 cell line; for IC50: 72 hours incubation
Procedure: (§1) Intracellular ATP content was used as an indirect readout of cell number using the ATPlite 1Step bioluminescence assay (Revvity, Groningen, the Netherlands). Cells were seeded in 384-well plates at an optimized density to ensure unrestricted growth and maximal signal at the end of the experiment. After 24 hours of incubation, the starting cell number was determined by adding ATPlite to each well of a control plate and recording luminescence on an Envision multimode reader (Revvity, Waltham, MA, USA) ([4]). […] Vehicle-treated controls were included to determine maximal cell proliferation. […] After incubation for an additional 72 hours, the ATP content was measured in each well using ATPlite. The luminescent signal in inhibitor-treated wells was normalized to vehicle-treated control wells to determine the percentage viability at each concentration. Cell doublings were determined by relating the cell number of vehicle-treated controls to the starting cell number for each cell line. […] The quality of the complete assay was determined by a parallel test with doxorubicin on two cell lines. IC50 values were calculated by fitting a four-parameter logistic model to the percentage viability values using IDBS XLfit5 (IDBS, Guildford, United Kingdom). All curves were visually inspected and submitted to an F-test as implemented in IDBS XLfit5. […] When this dose range was too high in a certain cell line to allow for a reliable determination of the IC50, a new dilution series was prepared using a diluted stock solution and was used to retest the compound on the cell line.

[2] = tested on: SU-DHL-6; experiment: Cell viability assay (ATPlite); format: cell-based, human; settings: SU-DHL-6 cell line; for IC50: 72 hours incubation
Procedure: as §1

[3] = target: T1, FLT4 (Homo sapiens, UniProt P35916); experiment: Kinase panel profiling at 1 µmol/L (mobility shift assay, Carna); format: biochemical; settings: 1 µmol/L of BTK inhibitor
T1 construct: purchased Carna Biosciences

[4] = target: T2, HIPK4 (Homo sapiens, UniProt Q8NE63); experiment: as above; format: biochemical; settings: 1 µmol/L of BTK inhibitor
T2 construct: purchased Carna Biosciences
T2 sequence (Q8NE63 1-616): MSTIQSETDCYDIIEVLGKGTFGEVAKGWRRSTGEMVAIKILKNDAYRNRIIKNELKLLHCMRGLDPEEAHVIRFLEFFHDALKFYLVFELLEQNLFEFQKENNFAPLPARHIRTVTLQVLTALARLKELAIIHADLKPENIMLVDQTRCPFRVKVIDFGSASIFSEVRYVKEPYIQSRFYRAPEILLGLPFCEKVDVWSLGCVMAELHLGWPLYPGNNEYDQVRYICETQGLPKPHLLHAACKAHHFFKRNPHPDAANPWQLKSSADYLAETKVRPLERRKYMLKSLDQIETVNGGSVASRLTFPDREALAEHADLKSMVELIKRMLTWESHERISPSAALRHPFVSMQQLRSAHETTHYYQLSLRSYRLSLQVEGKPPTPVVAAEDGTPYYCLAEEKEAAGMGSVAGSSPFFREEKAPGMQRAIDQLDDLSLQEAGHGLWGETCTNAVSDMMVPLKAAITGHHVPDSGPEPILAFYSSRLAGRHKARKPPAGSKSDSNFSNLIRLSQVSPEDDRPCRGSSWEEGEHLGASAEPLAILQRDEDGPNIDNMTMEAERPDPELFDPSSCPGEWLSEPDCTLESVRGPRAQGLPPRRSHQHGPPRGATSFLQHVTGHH

[5] = target: T3, MSK1 (Homo sapiens, UniProt O75582); experiment: as above; format: biochemical; settings: 1 µmol/L of BTK inhibitor
T3 construct: purchased Carna Biosciences

[6] = target: T4, MST3 (Homo sapiens, UniProt Q9Y6E0); experiment: as above; format: biochemical; settings: 1 µmol/L of BTK inhibitor
T4 construct: purchased Carna Biosciences

[7] = target: T5, NuaK1 (Homo sapiens, UniProt O60285); experiment: as above; format: biochemical; settings: 1 µmol/L of BTK inhibitor
T5 construct: purchased Carna Biosciences
T5 sequence (O60285 1-661): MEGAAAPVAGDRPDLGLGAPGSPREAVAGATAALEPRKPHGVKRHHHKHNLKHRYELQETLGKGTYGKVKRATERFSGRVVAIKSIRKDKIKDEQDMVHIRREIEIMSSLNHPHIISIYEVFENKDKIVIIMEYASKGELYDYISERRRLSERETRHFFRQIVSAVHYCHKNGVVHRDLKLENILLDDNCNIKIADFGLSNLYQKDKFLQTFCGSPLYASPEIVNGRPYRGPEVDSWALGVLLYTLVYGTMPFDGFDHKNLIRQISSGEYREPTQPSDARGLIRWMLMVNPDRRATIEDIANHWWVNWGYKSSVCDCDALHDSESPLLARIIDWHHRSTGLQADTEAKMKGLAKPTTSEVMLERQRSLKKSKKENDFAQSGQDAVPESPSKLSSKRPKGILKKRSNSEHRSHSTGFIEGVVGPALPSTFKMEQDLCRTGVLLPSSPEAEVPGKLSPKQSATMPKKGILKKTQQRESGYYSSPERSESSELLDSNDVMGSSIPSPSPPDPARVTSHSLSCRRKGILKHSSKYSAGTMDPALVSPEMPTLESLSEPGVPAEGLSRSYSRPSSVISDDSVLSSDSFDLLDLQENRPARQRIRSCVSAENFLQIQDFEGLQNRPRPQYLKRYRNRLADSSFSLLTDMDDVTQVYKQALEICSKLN

[8] = target: T6, p70S6Kβ (Homo sapiens, UniProt Q9UBS0); experiment: as above; format: biochemical; settings: 1 µmol/L of BTK inhibitor
T6 construct: purchased Carna Biosciences

[9] = target: T7, PDHK2 (Homo sapiens, UniProt Q15119); experiment: as above; format: biochemical; settings: 1 µmol/L of BTK inhibitor
T7 construct: purchased Carna Biosciences

[10] = target: T8, PIM1 (Homo sapiens, UniProt P11309); experiment: as above; format: biochemical; settings: 1 µmol/L of BTK inhibitor
T8 construct: purchased Carna Biosciences

[11] = target: T9, PRKX (Homo sapiens, UniProt P51817); experiment: as above; format: biochemical; settings: 1 µmol/L of BTK inhibitor
T9 construct: purchased Carna Biosciences
T9 sequence (P51817 1-358): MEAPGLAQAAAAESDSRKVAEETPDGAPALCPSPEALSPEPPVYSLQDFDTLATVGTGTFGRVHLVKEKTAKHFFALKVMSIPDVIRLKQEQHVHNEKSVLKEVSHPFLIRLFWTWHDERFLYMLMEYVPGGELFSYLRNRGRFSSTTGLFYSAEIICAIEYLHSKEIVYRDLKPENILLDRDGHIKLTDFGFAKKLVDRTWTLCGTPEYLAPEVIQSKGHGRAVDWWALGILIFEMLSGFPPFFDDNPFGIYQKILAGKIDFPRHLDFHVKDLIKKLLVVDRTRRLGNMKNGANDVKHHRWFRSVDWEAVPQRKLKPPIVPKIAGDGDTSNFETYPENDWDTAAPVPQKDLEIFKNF

[12] = target: T10, WNK2 (Homo sapiens, UniProt Q9Y3S1); experiment: as above; format: biochemical; settings: 1 µmol/L of BTK inhibitor
T10 construct: purchased Carna Biosciences

[13] = target: PDGFRα (Homo sapiens, UniProt P16234); experiment: Kinase enzyme activity assay (mobility shift assay, Carna); settings: for Percentage inhibition of kinase enzyme activity: PDGFRα, 1 µmol/L of BTK inhibitor
[14] = Homo sapiens, Rec1, read-out: IC50

T3 sequence (O75582 whole entry): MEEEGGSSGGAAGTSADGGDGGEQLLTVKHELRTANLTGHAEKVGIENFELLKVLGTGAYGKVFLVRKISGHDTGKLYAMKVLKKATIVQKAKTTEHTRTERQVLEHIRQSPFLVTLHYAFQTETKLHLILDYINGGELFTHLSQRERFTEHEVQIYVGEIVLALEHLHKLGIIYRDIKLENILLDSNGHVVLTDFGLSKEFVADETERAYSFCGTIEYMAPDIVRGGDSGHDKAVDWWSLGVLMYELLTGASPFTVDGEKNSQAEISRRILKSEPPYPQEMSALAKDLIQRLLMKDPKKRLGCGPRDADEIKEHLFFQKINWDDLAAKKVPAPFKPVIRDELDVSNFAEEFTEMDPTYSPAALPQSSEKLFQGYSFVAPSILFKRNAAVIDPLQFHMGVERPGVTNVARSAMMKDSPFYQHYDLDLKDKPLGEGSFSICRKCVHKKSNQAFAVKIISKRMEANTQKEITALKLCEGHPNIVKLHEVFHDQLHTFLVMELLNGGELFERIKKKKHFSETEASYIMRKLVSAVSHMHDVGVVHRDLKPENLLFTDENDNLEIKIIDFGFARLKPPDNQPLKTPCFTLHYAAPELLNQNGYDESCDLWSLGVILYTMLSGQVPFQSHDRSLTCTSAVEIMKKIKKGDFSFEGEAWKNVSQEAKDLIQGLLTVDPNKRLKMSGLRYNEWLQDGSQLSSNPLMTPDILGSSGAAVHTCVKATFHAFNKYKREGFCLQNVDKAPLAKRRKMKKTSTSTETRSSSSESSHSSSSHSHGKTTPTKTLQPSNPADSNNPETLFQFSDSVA
T8 sequence (P11309 whole entry): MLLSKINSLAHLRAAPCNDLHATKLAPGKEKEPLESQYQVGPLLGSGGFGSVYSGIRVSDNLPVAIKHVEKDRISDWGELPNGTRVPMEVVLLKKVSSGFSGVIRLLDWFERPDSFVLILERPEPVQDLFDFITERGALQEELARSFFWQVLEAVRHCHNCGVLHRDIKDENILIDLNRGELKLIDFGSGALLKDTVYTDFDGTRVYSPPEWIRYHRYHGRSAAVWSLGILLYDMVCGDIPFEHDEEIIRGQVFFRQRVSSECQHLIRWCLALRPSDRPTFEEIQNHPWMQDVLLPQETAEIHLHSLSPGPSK
T1 sequence (P35916 25-1363): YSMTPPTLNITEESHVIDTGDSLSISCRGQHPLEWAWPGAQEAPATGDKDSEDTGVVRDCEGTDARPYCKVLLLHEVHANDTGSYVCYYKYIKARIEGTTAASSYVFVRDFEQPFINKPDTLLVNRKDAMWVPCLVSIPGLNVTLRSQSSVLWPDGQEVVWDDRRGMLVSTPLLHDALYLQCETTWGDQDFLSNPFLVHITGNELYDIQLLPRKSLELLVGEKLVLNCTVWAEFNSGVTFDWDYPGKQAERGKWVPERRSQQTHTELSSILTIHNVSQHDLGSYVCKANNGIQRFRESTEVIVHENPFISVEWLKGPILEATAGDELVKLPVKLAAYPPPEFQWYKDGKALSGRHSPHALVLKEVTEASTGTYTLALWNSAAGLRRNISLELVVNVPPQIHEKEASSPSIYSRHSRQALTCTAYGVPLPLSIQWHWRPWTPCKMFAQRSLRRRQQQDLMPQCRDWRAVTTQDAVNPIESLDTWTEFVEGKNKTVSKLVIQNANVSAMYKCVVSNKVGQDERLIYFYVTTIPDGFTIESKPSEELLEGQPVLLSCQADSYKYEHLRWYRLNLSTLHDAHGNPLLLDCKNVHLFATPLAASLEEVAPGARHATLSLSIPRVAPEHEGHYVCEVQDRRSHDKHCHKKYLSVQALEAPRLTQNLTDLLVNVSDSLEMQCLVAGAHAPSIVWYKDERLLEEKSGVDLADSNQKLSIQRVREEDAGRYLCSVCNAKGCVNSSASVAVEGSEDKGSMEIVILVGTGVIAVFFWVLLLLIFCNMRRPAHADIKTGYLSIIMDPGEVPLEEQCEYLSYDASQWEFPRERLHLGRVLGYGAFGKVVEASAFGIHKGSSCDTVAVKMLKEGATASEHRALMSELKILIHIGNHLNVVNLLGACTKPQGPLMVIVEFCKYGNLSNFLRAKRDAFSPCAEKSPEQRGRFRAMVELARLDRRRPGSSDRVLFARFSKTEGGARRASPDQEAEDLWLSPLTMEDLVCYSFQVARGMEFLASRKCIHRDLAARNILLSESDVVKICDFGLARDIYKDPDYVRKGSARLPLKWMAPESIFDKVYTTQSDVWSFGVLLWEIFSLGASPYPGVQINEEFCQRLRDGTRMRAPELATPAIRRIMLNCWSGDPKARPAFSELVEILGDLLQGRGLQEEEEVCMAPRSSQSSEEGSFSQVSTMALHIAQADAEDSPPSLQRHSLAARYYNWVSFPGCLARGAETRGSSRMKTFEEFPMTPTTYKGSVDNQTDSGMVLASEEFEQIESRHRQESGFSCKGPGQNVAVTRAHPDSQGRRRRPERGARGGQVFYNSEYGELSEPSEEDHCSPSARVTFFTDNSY
T10 sequence (Q9Y3S1 whole entry): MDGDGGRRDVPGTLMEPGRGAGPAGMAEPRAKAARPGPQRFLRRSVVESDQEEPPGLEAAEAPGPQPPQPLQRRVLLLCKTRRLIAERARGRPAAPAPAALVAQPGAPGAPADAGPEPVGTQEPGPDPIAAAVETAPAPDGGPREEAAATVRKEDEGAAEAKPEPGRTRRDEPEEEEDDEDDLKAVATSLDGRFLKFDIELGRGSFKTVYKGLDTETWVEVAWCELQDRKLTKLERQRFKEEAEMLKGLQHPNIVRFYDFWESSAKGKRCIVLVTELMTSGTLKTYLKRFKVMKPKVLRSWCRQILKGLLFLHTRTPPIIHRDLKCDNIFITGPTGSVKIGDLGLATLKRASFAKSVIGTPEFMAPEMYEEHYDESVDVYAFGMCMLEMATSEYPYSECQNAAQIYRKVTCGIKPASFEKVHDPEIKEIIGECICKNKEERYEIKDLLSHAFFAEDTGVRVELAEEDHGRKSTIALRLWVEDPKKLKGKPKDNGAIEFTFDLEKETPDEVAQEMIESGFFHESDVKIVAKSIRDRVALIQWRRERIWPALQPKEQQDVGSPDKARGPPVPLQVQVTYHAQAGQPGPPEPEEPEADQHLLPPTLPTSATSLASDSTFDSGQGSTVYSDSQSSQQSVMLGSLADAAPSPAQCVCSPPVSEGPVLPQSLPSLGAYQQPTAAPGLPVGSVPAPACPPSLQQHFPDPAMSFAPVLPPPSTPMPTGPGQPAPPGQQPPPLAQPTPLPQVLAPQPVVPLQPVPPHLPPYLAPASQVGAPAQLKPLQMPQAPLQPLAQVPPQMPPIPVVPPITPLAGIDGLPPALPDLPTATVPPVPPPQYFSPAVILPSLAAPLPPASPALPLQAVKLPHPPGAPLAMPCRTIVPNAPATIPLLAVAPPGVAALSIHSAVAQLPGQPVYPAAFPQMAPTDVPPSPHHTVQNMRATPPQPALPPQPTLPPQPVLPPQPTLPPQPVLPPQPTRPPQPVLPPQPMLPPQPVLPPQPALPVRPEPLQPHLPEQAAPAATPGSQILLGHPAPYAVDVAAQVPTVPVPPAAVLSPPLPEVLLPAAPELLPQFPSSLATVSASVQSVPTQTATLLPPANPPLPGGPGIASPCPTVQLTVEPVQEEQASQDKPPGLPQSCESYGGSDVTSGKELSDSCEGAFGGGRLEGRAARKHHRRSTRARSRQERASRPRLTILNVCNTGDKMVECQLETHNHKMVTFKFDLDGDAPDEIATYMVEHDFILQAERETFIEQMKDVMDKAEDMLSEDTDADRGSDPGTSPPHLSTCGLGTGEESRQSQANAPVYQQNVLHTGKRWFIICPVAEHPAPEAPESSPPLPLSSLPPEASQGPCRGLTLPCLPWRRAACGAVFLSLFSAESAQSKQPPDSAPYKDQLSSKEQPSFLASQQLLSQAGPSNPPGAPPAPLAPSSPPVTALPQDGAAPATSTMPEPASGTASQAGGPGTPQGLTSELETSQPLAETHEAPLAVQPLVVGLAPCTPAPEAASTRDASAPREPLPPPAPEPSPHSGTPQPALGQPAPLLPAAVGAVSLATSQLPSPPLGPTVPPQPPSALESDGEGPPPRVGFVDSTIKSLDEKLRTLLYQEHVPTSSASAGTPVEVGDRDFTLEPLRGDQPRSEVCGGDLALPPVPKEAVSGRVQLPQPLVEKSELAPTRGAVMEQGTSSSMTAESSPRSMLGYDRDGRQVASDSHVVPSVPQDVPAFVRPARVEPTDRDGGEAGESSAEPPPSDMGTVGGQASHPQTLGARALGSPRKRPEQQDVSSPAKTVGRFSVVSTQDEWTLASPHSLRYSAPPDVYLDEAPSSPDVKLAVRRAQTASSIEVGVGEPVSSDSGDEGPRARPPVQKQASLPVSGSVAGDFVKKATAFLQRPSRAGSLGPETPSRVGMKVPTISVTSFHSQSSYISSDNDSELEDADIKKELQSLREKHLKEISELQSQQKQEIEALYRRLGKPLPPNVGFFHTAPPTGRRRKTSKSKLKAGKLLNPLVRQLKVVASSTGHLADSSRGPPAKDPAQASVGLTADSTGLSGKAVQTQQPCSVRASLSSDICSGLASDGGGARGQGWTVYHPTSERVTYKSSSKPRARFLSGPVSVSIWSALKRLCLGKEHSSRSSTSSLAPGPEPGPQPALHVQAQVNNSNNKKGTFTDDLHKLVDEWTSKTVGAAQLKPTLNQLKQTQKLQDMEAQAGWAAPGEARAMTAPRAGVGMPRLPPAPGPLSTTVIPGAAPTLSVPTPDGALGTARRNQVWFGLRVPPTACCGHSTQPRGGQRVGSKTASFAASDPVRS

| SMILES | IC50 ([1]; Homo sapiens, Rec1, 72 h) [nM] | IC50 [1] [nM] | IC50 ([2]; Homo sapiens, SU-DHL-6, 72 h) [nM] | IC50 [2] [nM] | Percentage inhibition of kinase enzyme activity [3] [%] | Percentage inhibition of kinase enzyme activity [4] [%] | Percentage inhibition of kinase enzyme activity [5] [%] | Percentage inhibition of kinase enzyme activity [6] [%] | Percentage inhibition of kinase enzyme activity [7] [%] | Percentage inhibition of kinase enzyme activity [8] [%] | Percentage inhibition of kinase enzyme activity [9] [%] | Percentage inhibition of kinase enzyme activity [10] [%] | Percentage inhibition of kinase enzyme activity [11] [%] | Percentage inhibition of kinase enzyme activity [12] [%] | IC50 [13] [nM] | Percentage inhibition of kinase enzyme activity [13] [%] | IC50 [1, 14] [nM] | IC50 ([2]; Homo sapiens, read-out: IC50) [nM] | IC50 fold change of nemtabrutinib with the inhibitor [1] | IC50 fold change of nemtabrutinib with the inhibitor [2] |
| --- | --- | --- | --- | --- | --- | --- | --- | --- | --- | --- | --- | --- | --- | --- | --- | --- | --- | --- | --- | --- |
| O=C(c1ccc(Oc2ccccc2)cc1Cl)c1c[nH]c2ncnc(N[C@@H]3CC[C@@H](CO)OC3)c12 [nemtabrutinib] | 2000 | 2040 | 600 | 577 | 90.70 | 13.77 | 11.30 | 60.10 | 3.95 | 4.30 | 4.18 | -15.07 | 1.65 | 47.36 | 12.4 | 88.08 | – | – | – | – |
| CC#CC(=O)N1CCC[C@H]1c1nc(-c2ccc(C(=O)Nc3ccccn3)cc2)c2c(N)nccn12 [acalabrutinib] | – | – | – | – | 1.41 | -9.54 | -7.68 | -2.52 | -3.51 | -14.17 | 0.16 | -4.28 | -4.59 | 0.79 | – | 1.38 | 21 | 3.1 | – | – |
| COc1ccc(F)cc1C(=O)NCc1ccc(-c2nn([C@@H](C)C(F)(F)F)c(N)c2C(N)=O)cc1 [pirtobrutinib] | – | – | – | – | 4.92 | 2.58 | 4.32 | 0.67 | 4.02 | 10.01 | 0.06 | 3.95 | 9.51 | 11.58 | – | 3.06 | 38 | 13 | 53 | 43 |
| C=CC(=O)N1CCC([C@@H]2CCNc3c(C(N)=O)c(-c4ccc(Oc5ccccc5)cc4)nn32)CC1 [zanubrutinib] | 3.1 | – | 3.8 | – | -6.85 | – | 0.57 | – | – | – | – | – | – | – | – | 3.66 | – | – | – | – |
| C=CC(=O)N1CCC[C@@H](n2nc(-c3ccc(Oc4ccccc4)cc3)c3c(N)ncnc32)C1 [ibrutinib] | – | – | – | – | 90.82 | 2.60 | -1.18 | 7.79 | 6.70 | 0.87 | -1.08 | – | 0.66 | 5.67 | – | 94.28 | 0.51 | 12 | – | – |
